Earlier results in patent US20020146463A1, “Health promoting compositions” (priority 2000, published 2002).

Legend:
[1] = 500 patients with skin conditions, 180-300 mg beta carotene/day for 10 years
[2] = high versus low levels of folic acid in diet
[3] = three recent trials

CC1=C(/C=C/C(C)=C/C=C/C(C)=C/C=C/C=C(C)/C=C/C=C(C)/C=C/C2=C(C)CCCC2(C)C)C(C)(C)CCC1 [beta carotene]
adverse effects [1]: without report of adverse effects

Nc1nc2ncc(CNc3ccc(C(=O)N[C@@H](CCC(=O)O)C(=O)O)cc3)nc2c(=O)[nH]1 [folic acid]
less likely to suffer a fatal heart attack [2]: 69%

vitamin E
reduction of the risk of heart attacks [3]: more than half
